Data reported in US6455041B1, “Immunogenic epitopes of the human zona pellucida protein (ZP1)” (priority 1998, dated 2002).

How the values were obtained:
[1] = test system: antibodies from baboons immunized with HSZP; assay: Biotinylated peptide assay, antisera from baboons immunized with porcine ZP (HSPZ); type: binding, baboon; conditions: for peptide recognition by sera of individual baboons: four baboons (#1994, #2020, #2044, #2032) immunized with HSZP, sera 3 weeks after second booster, dilution 1/1000, FIGS. 2A-2D; for peptide recognition by baboon serum pool: pooled antisera from baboons immunized with HSZP, TiterMax adjuvant, FIG. 1C
Procedure: Lyophilized porcine ZP immogen was prepared and solubilized in 0.1 M sodium carbonate, pH 9.6 and heated at 60° C. for ten minutes as previously described (42, 45). Immunogen was emulsified in Titer Max adjuvant (50%) by passage through syringes with 19 gauge needles connected by tygon tubing. Animals were sedated with Ketarmine (10 mg/kg) prior to injection with 200 μl containing ^150 μg ZP immunogen (primary and boosts). Animals were immunized and boosted at 3 week and 6 week intervals.
Blood samples were collected at approximately 3 week intervals following the booster injections, and were obtained from femoral veins under Ketamine sedation. Serum was isolated by conventional methods an conveyed frozen to the U.S.A. laboratory facility for analysis. For the present studies, serum samples taken at three weeks following the second booster injection were used. The ELISA assay previously described by Drell and Dunbar, 1984 (46) was used to determine the levels of antibody against immobilized HSPZ. Antisera previously obtained from baboons immunized against electrophoretically purified porcine ZP1 (35) were used as a positive control for these assays. Nonimmune sera from animals immunized with adjuvant alone were used as a negative control.
(§1) Peptides containing 15 amino acid residues, which overlapped by 9 amino acids, were designed to ensure that all potential epitopes would be identified. Biotinylated peptides (BP) containing 15-mers with a 9-amino acid overlap were synthesized by Chiron Mimotopes Pty. Ltd. (Victoria, Australia).
(§2) For the assay, streptavidin (Sigma Chemicals, S-4762) was diluted to 5 μg/ml in deionized water and dispensed at 100 μl well into 96-well microtiter plates (Immulon 2, Dynatech Labs) and plates are incubated overnight at 32° C. to evaporate to complete dryness. Plates were then rinsed four times in wash buffer of pH 7.3, consisting of 0.02M sodium phosphate containing 0.15M NaCl and 0.05% Tween 20. The plates were blocked using 200 μl 0.02M sodium phosphate buffered saline (PBS) containing 2% nonfat dried milk (pH 8.8) for 2 hours at room temperature and the rinse was repeated. Blocking and all incubations were carried out using a Minimix shaker (Fisher). Biotinylated peptides were then dispensed such that the final: dilution of each was 1:10,000 and was made in wash buffer containing 2% nonfat dried milk. Peptides (100 μl per well) were incubated overnight at 4° C. on the shaker.
Initially, each peptide was solubilized in 200 μl of DMSO per manufacturers' instructions and stored this long term at −80° C. Approximately 2 μl was used to make a 1:5,000 stock solution diluted in PBs containing 0.1% BSA and 0.1% sodium aside. These stocks were then stored at −20° C. and are diluted 1:10,000 for assays. […]

[2] = test system: antibodies in sera of baboons administered electrophoretically purified, denatured porcine ZP proteins; assay: Biotinylated peptide assay, sera from baboons immunized with chemically deglycosylated, electrophoretically purified porcine ZP proteins; type: binding, baboon; conditions: two baboons immunized with deglycosylated, FIGS. 3A-3B
Procedure: as §1
as §2, with “Biotinylated peptides were then dispensed such that the final: dilution of each was 1:10,000 and was made in wash buffer containing 2% nonfat dried milk. Peptides (100 μl per well) were incubated overnight at 4° C. on the shaker.” left out
(§3) After rinsing with blocking solution, 100 μl/well of antibody solution was added and plates incubated at RT for 2 hours with shaking. […] The plates were incubated at RT with shaking for 45 minutes and read in a Titertek Multiskan reader at 405 nm. […]
Additional sera from baboons administered electrophoretically purified, denatured porcine ZP proteins as the immunogen (35), were evaluated. […]

[3] = test system: antibodies from rabbits immunized with heat solubilized, native porcine ZP proteins (HSZP); assay: Biotinylated peptide assay, pooled antisera from rabbits immunized with porcine ZP (HSPZ); type: binding, rabbit; conditions: Complete Freund's Adjuvant, FIG. 1B
Procedure: as §1
as §2, with “Peptides (100 μl per well) were incubated overnight at 4° C. on the shaker.” left out
as §3

54 (SGSGFPETQPGPLTLELQI; listed as Homo sapiens) [compound 54]
peptide recognition by sera of individual baboons [1]: all four of the animals recognized
peptide recognition by baboon serum pool [1]: recognized by both serum pools
peptide recognition by baboon sera [2]: again recognized by the baboon sera
peptide recognition by rabbit serum pool [3]: recognized by both serum pools

55 (SGSGGPLTLELQIAKDKNY; listed as Homo sapiens) [compound 55]
peptide recognition by sera of individual baboons [1]: all four of the animals recognized
peptide recognition by baboon serum pool [1]: recognized by both serum pools
peptide recognition by baboon sera [2]: again recognized by the baboon sera
peptide recognition by rabbit serum pool [3]: recognized by both serum pools
